# In the oligonucleotide strings, read from the 5' end, every base follows the letter of its sugar. An asterisk marks phosphorothioate; unmarked linkages are phosphodiester. Other units and linkages are bracketed, terminal groups are in braces. A string of capitals states the bases alone. e = 2'-O-(2-methoxyethyl) (MOE); [5mC] = 5-methylcytosine; d = 2'-deoxy (DNA)
# Columns and labels:
# [1] = system: human p38α mRNA; assay: Human p38α mRNA expression in T-24 cells; conditions: for % P38α mRNA EXPRESSION: initial screen of human p38α oligonucleotides
# [2] = system: human p38β mRNA; assay: Human p38β mRNA expression in T-24 cells; conditions: for % P38β mRNA EXPRESSION: initial screen of human p38α oligonucleotides
# [3] = system: human p38α mRNA; assay: Inhibition of human p38α mRNA expression in Jurkat cells, Northern blot; assay type: cell-based
# Experimental: The human Jurkat T-cell line (American Type Culture Collection, Manassas, Va.) was maintained in RPMI 1640 growth media supplemented with 10% fetal bovine serum (FBS; Hyclone, Logan, Utah). HUVEC cells (Clonetics, San Diego, Calif.) were cultivated in endothelial basal media supplemented with 10% FBS (Hyclone, Logan, Utah).
# Jurkat cells were grown to approximately 75% confluency and resuspended in culture media at a density of 1×10^7 cells/ml. A total of 3.6×10^6 cells were employed for each treatment by combining 360 μl of cell suspension with oligonucleotide at the indicated concentrations to reach a final volume of 400 μl. Cells were then transferred to an electroporation cuvette and electroporated using an Electrocell Manipulator 600 instrument (Biotechnologies and Experimental Research, Inc.) employing 150 V, 1000 μF, at 13 Ω. Electroporated cells were then transferred to conical tubes containing 5 ml of culture media, mixed by inversion, and plated onto 10 cm culture dishes.
# Total mRNA was isolated using the RNEASY7 Mini Kit (Qiagen, Valencia, Calif.; similar kits from other manufacturers may also be used), separated on a 1% agarose gel, transferred to HYBOND™-N+ membrane (Amersham Pharmacia Biotech, Piscataway, N.J.), a positively charged nylon membrane, and probed. p38 MAPK probes were made using the Prime-A-Gene7 kit (Promega Corporation, Madison, Wis.), a random primer labeling kit, using mouse p38α or p38β cDNA as a template. A glyceraldehyde 3-phosphate dehydrogenase (G3PDH) probe was purchased from Clontech (Palo Alto, Calif.), Catalog Number 9805-1. The fragments were purified from low-melting temperature agarose, as described in Maniatis, T., et al., Molecular Cloning: A Laboratory Manual, 1989. The G3PDH probe was labeled with REDIVUE™ ^32P-dCTP (Amersham Pharmacia Biotech, Piscataway, N.J.) and Strip-EZ labelling kit (Ambion, Austin, Tex.). mRNA was quantitated by a PhosphoImager (Molecular Dynamics, Sunnyvale, Calif.).
# Jurkat cells were grown and treated as described above except the concentration of oligonucleotide was varied as indicated in Table 3. […] Maximum inhibition was approximately 70% with 16500 (SEQ ID NO 17).
# [4] = initial screen of human p38β oligonucleotides
# [5] = dose 50 nM, relative to control oligonucleotide = 100%
# [6] = dose 100 nM, relative to control oligonucleotide = 100%
# [7] = dose 200 nM, relative to control oligonucleotide = 100%
# [8] = Jurkat cells electroporated with 10 μM oligonucleotide, Northern blot
sequence,measurement,setting,value
GTACGTTCTGCGCGCGTGGA (antisense eGeTeAe[5mC]eG*dT*dT*d[5mC]*dT*dG*d[5mC]*dG*d[5mC]*dG*d[5mC]*eGeTeGeGeA) [ISIS 107871],% p38α mRNA EXPRESSION,[1]; [4],111%
same,% p38β mRNA Expression,[2]; [5],41%
same,% p38β mRNA Expression,[2]; [6],42%
same,% p38β mRNA Expression,[2]; [7],10%
same,% p38β mRNA Expression,[2]; [4],60%
CAGTTGAGCATGATCTCAGG (antisense e[5mC]eAeGeTeT*dG*dA*dG*d[5mC]*dA*dT*dG*dA*dT*d[5mC]*eTe[5mC]eAeGeG) [ISIS 107876],% p38α mRNA EXPRESSION,[1]; [4],137%
same,% p38β mRNA Expression,[2]; [4],127%
"GGCACAAAGCTGATGACTTC (chimeric deoxy gapped, phosphorothioate, further chemistry not given here) [ISIS 100875]",% p38α mRNA EXPRESSION,[1]; dose 50 nM,30%
same,% p38α mRNA EXPRESSION,[1]; dose 100 nM,13%
same,% p38α mRNA EXPRESSION,[1]; dose 200 nM,8%
same,% P38α mRNA EXPRESSION,[1],39%
same,% P38β mRNA EXPRESSION,[2],90%
CAGGAATTGAACGTGCTCGT (antisense e[5mC]eAeGeGeA*dA*dT*dT*dG*dA*dA*d[5mC]*dG*dT*dG*e[5mC]eTe[5mC]eGeT) [ISIS 107873],% p38α mRNA EXPRESSION,[1]; [4],120%
same,% p38β mRNA Expression,[2]; [5],69%
same,% p38β mRNA Expression,[2]; [6],41%
same,% p38β mRNA Expression,[2]; [7],23%
same,% p38β mRNA Expression,[2]; [4],58%
TCAAAGGACTGATCATAAGG (eT*e[5mC]*eA*eA*eA*dG*dG*dA*d[5mC]*dT*dG*dA*dT*d[5mC]*dA*eT*eA*eA*eG*eG; antisense) [ISIS 100874],% p38α mRNA EXPRESSION,[1]; dose 50 nM,47%
same,% p38α mRNA EXPRESSION,[1]; dose 100 nM,27%
same,% p38α mRNA EXPRESSION,[1]; dose 200 nM,13%
same,% P38α mRNA EXPRESSION,[1],42%
same,% P38β mRNA EXPRESSION,[2],76%
"CATCCCACTGACCAAATATC (chimeric deoxy gapped, phosphorothioate, further chemistry not given here) [ISIS 100869]",% P38α mRNA EXPRESSION,[1],61%
same,% P38β mRNA EXPRESSION,[2],100%
"ACGCTCGGGCACCTCCCAGA (phosphorothioate gapmer, further chemistry not given here) [ISIS 100861]",% P38α mRNA EXPRESSION,[1],60%
same,% P38β mRNA EXPRESSION,[2],47%
"CTCACAGTCTTCATTCACAG (chimeric deoxy gapped, phosphorothioate, further chemistry not given here) [ISIS 100867]",% P38α mRNA EXPRESSION,[1],58%
same,% P38β mRNA EXPRESSION,[2],33%
CACCGCCACCTTCTGGCGCA (antisense e[5mC]eAe[5mC]e[5mC]eG*d[5mC]*d[5mC]*dA*d[5mC]*d[5mC]*dT*dT*d[5mC]*dT*dG*eGe[5mC]eGe[5mC]eA) [ISIS 107870],% p38α mRNA EXPRESSION,[1]; [4],97%
same,% p38β mRNA Expression,[2]; [4],74%
ATGGACGTGGCCGGCGTGAA (antisense eAeTeGeGeA*d[5mC]*dG*dT*dG*dG*d[5mC]*d[5mC]*dG*dG*d[5mC]*eGeTeGeAeA) [ISIS 107872],% p38α mRNA EXPRESSION,[1]; [4],123%
same,% p38β mRNA Expression,[2]; [5],71%
same,% p38β mRNA Expression,[2]; [6],13%
same,% p38β mRNA Expression,[2]; [7],22%
same,% p38β mRNA Expression,[2]; [4],57%
"AGCTTCTTCACTGCCACACG (phosphorothioate gapmer, further chemistry not given here) [ISIS 100862]",% P38α mRNA EXPRESSION,[1],56%
same,% P38β mRNA EXPRESSION,[2],45%
CGGACCAGATATCCACTGTT (antisense e[5mC]eGeGeAe[5mC]*d[5mC]*dA*dG*dA*dT*dA*dT*d[5mC]*d[5mC]*dA*e[5mC]eTeGeTeT) [ISIS 107877],% p38β mRNA Expression,[2]; [5],50%
same,% p38β mRNA Expression,[2]; [6],34%
same,% p38β mRNA Expression,[2]; [7],22%
TGTGCCGAATCTCGGCCTCT (antisense eT*eG*eT*eG*e[5mC]*e[5mC]*dG*dA*dA*dT*dC*dT*dC*dG*eG*e[5mC]*e[5mC]*eT*e[5mC]*eT) [ISIS 16490],% mRNA EXPRESSION,[3]; [8],152%
same,% mRNA Inhibition,[3]; [8],no inhibition
same,% mRNA EXPRESSION,"[3]; Jurkat cells, dose 2.5 nM",112%
same,% mRNA EXPRESSION,"[3]; Jurkat cells, dose 5 nM",109%
same,% mRNA EXPRESSION,"[3]; Jurkat cells, dose 10 nM",104%
same,% mRNA EXPRESSION,"[3]; Jurkat cells, dose 20 nM",97%
same,% mRNA Inhibition,"[3]; Jurkat cells, dose 20 nM",3%
TAAGGAGGTCCCTGCTTTCA (antisense eT*eA*eA*eG*eG*eA*dG*dG*dT*dC*dC*dC*dT*dG*e[5mC]*eT*eT*eT*e[5mC]*eA) [ISIS 16499],% mRNA EXPRESSION,[3]; [8],74%
same,% mRNA Inhibition,[3]; [8],26%
CATTTTCCAGCGGCAGCCGC (antisense e[5mC]*eA*eT*eT*eT*eT*dC*dC*dA*dG*dC*dG*dG*dC*eA*eG*e[5mC]*e[5mC]*eG*e[5mC]) [ISIS 16493],% mRNA EXPRESSION,[3]; [8],101%

# Source: patent publication US20040171566A1, “Antisense modulation of p38 mitogen activated protein kinase expression” (priority 1999, published 2004)
